Results: ChEMBL document CHEMBL5126609, “Design, Synthesis, and Pharmacological Evaluation of Benzimidazolo-thiazoles as Potent CXCR3 Antagonists with Therapeutic Potential in Autoimmune Diseases: Discovery of ACT-672125” (J Med Chem, 2022)
≈ marks a conversion by molar mass, not a printed value.

Experiments:
in vitro [1] = settings: human, microsomes
[2] = Unbound fraction in human plasma by equilibrium based LC-MS/MS analysis
[3] = Unbound fraction in mouse plasma by equilibrium based LC-MS/MS analysis
[4] = Lipophilicity, log D of the compound at pH 7.4; settings: buffer
in vitro [5] = settings: mouse, microsomes
[6] = biological target: T1, C-X-C chemokine receptor type 3 (Homo sapiens, UniProt P49682); test: Antagonist activity at human recombinant CXCR3 in human venous blood assessed as receptor internalization measured for 30 mins in presence of CXCL10 by flow cytometric analysis
T1 sequence (P49682 whole entry): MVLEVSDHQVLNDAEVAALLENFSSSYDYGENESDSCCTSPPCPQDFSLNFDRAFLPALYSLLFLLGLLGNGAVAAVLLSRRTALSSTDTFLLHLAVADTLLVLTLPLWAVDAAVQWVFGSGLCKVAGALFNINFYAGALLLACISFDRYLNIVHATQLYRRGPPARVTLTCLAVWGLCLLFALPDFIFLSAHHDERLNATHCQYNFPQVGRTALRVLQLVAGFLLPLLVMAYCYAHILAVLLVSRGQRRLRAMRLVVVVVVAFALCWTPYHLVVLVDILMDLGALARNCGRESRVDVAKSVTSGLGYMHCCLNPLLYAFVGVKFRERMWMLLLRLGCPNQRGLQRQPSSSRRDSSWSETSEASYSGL

in vivo [7] = settings: Balb/c, mouse, po, 10 mg/kg
in vivo [8] = settings: Balb/c, mouse, po, 10 mg/kg; remark: listed apart in the source
in vivo [9] = settings: Balb/c, mouse, po, 10 mg/kg; remark: listed apart in the source
[10] = Solubility of the compound in FeSSIF; settings: simulated gi fluid
[11] = biological target: T1, C-X-C chemokine receptor type 3; test: Antagonist activity at human recombinant CXCR3 expressed in CHO-K1 cells measured after 10 mins in presence of CXCL10 by FLIPR analysis
hERG (KCNH2) = hERG (KCNH2) (Homo sapiens, UniProt Q12809); test: Inhibition of hERG expressed in CHO cells at 3 uM at -80 mV holding potential assessed as current block incubated for 3 mins by Qpatch clamp method relative to control
[12] = Solubility of the compound in FaSSIF; settings: simulated gi fluid
[13] = Apparent permeability across apical to basolateral side in MDCK1 cells by LC-MS/MS analysis; settings: dog, MDCK
[14] = Clearance in Wistar rat at 2 mg/kg, po; settings: in vivo
[15] = Unbound fraction in rat plasma by equilibrium based LC-MS/MS analysis
[16] = Half life in Wistar rat at 0.5 mg/kg, iv; settings: in vivo
in vivo [17] = settings: Wistar, rat, po, 2 mg/kg
in vivo [18] = settings: Wistar, rat, po, 2 mg/kg; remark: listed apart in the source
in vivo [19] = settings: Wistar, rat, po, 2 mg/kg; remark: listed apart in the source
in vitro [20] = settings: rat, microsomes

Sequence of hERG (KCNH2) (Q12809 whole entry): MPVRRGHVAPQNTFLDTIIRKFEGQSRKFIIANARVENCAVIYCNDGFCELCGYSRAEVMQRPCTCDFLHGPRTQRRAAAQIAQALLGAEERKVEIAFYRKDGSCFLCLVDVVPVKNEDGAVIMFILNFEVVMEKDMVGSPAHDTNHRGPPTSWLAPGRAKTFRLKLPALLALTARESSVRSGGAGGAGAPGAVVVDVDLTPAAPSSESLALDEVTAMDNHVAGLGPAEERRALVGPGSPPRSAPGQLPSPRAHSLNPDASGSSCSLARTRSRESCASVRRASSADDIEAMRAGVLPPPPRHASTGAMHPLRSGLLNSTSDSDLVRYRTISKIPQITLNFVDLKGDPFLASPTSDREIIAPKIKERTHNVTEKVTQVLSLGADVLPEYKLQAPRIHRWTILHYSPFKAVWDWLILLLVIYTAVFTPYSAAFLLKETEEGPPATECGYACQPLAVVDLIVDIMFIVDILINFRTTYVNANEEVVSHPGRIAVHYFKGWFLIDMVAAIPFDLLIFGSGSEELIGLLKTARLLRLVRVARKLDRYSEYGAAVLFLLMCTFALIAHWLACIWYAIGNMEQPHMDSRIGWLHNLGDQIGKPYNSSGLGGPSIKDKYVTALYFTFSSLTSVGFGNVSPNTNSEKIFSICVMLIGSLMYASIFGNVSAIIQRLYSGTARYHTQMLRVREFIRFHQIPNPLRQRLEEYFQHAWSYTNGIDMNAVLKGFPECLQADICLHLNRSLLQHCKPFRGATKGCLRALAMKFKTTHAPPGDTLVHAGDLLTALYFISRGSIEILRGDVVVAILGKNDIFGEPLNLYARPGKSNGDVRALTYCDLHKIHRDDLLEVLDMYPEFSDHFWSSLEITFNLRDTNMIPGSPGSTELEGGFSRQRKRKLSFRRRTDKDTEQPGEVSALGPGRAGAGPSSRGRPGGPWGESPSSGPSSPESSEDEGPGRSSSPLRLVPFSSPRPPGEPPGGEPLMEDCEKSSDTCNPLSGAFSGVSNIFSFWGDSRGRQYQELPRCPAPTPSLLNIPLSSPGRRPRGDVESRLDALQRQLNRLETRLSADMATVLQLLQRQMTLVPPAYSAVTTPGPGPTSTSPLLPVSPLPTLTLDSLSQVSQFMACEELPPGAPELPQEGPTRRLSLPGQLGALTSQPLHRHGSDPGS

| Compound | microsomal CLint at 0.25 h, 1 µM (in vitro [1]) [µL/min/mg] | logD [4] | microsomal CLint at 0.25 h, 1 µM (in vitro [5]) [µL/min/mg] | IC50 [6] [µM] | Tmax (in vivo [7]) [min] | Cmax (in vivo [8]) [µg/mL] | AUC (in vivo [9]) [µg·h/mL] | solubility [10] [mg/mL] | IC50 [11] [µM] | inhibition at 0.05 h, 3 µM (hERG (KCNH2)) [%] | other results |
| --- | --- | --- | --- | --- | --- | --- | --- | --- | --- | --- | --- |
| Cc1nn(CC(=O)N2CCN(c3sc(C(F)(F)F)nc3-c3nc4ccccc4[nH]3)C[C@H]2C)cc1CN(C)C | 37 | 2.4 | 29 | 0.33 | 120 | 0.258 | 0.833 | 0.645 (≈ 1180 µM) | 0.0027 | 38 | fraction unbound [2]: 0.143; fraction unbound [3]: 0.053; solubility [12]: 0.649 mg/mL (≈ 1190 µM) |
| C[C@@H]1CN(c2sc(C(F)(F)F)nc2-c2nc3ccccc3[nH]2)CCN1C(=O)Cn1cccn1 | 44 | 3.4 | 218 | 0.191 | 15 | 0.67 | 0.72 | 0.734 (≈ 1540 µM) | 0.013 | 54 | fraction unbound [2]: 0.052; fraction unbound [3]: 0.026; solubility [12]: 0.352 mg/mL (≈ 740 µM) |
| Cc1nc(C)n(CC(=O)N2CCN(c3sc(C(F)(F)F)nc3-c3nc4ccc(O)c(F)c4[nH]3)C[C@H]2C)n1 |  |  |  |  |  |  |  |  |  | 15 |  |
| Cc1nnc(CC(=O)N2CCN(c3sc(C(F)(F)F)nc3-c3nc4ccccc4[nH]3)C[C@H]2C)o1 |  |  |  | 2.47 |  |  |  |  | 0.031 | 36 |  |
| Cc1nc(C)n(CC(=O)N2CCN(c3sc(C(F)(F)F)nc3-c3nc4ccc(OC5COC5)cc4[nH]3)C[C@H]2C)n1 |  |  |  |  |  |  |  |  |  | 0 |  |
| C[C@@H]1CN(c2sc(C(F)(F)F)nc2-c2nc3ccccc3[nH]2)CCN1C(=O)CN1CCC(F)(F)CC1 |  |  |  |  |  |  |  |  |  | 84 |  |
| Cc1nc(C)n(CC(=O)N2CCN(c3sc(C(F)(F)F)nc3-c3nc4ccc(N5CCOCC5)cc4[nH]3)C[C@H]2C)n1 | 19 | 2 | 18 | 0.368 | 15 | 4.32 | 4.11 | 0.963 (≈ 1630 µM) | 0.0057 | 4 |  |
| Cc1nc(C)n(CC(=O)N2CCN(c3sc(C(F)(F)F)nc3-c3nc4ccc(N5CCOCC5)c(F)c4[nH]3)C[C@H]2C)n1 |  |  |  |  |  |  |  |  |  | 25 |  |
| C[C@@H]1CN(c2sc(C(F)(F)F)nc2-c2nc3ccccc3[nH]2)CCN1C(=O)Cn1cc(Cl)cn1 |  |  |  | 0.251 |  |  |  |  | 0.0017 | 70 |  |
| C[C@@H]1CN(c2sc(C(F)(F)F)nc2-c2nc3ccccc3n2C)CCN1C(=O)Cn1cccn1 |  |  |  | 3.56 |  |  |  |  | 0.11 | 46 |  |
| C[C@@H]1CN(c2sc(C(F)(F)F)nc2-c2nc3ccc(CO)cc3[nH]2)CCN1C(=O)Cn1cnc2cccnc21 | 131 |  |  |  |  |  |  |  | 0.0046 | 12 |  |
| Cc1nc(C)n(CC(=O)N2CCN(c3sc(C(F)(F)F)nc3-c3nc4c(F)cccc4[nH]3)C[C@H]2C)n1 | 24 | 3.6 | 25 | 0.321 | 15 | 7.01 | 41.5 | 0.75 (≈ 1440 µM) | 0.0031 | 45 | fraction unbound [3]: 0.014; Papp A→B [13]: 85 nm/s |
| Cc1nc(C)n(CC(=O)N2CCN(c3sc(C(F)(F)F)nc3-c3nc4ccc(S(C)(=O)=O)cc4[nH]3)C[C@H]2C)n1 |  |  |  |  |  |  |  |  |  | 8 |  |
| Cc1nc(C)n(CC(=O)N2CCN(c3sc(C(F)(F)F)nc3-c3nc4c(C(F)(F)F)cccc4[nH]3)C[C@H]2C)n1 |  |  |  | 0.747 |  |  |  |  | 0.006 | 52 |  |
| Cc1nc(C)n(CC(=O)N2CCN(c3sc(C(F)(F)F)nc3-c3nc4ccccc4[nH]3)C[C@H]2C)n1 | 30 | 3.3 | 21 | 0.237 | 30 | 5.09 | 10.8 | > 0.85 | 0.0032 | 45 | fraction unbound [2]: 0.113; CL/F [14]: 0.36 L/h/kg; fraction unbound [3]: 0.041; fraction unbound [15]: 0.074; solubility [12]: 0.44 mg/mL (≈ 872 µM); half-life [16]: 180 min; Papp A→B [13]: 120 nm/s; bioavailability (in vivo [17]): 0.5%; Tmax (in vivo [18]): 30 min; AUC (in vivo [19]): 2.97 µg·h/mL; microsomal CLint at 0.25 h, 1 µM (in vitro [20]): 39 µL/min/mg |
| Cc1nc(C)n(CC(=O)N2CCN(c3sc(C(F)(F)F)nc3-c3nc4ccc(C5CCOCC5)cc4[nH]3)C[C@H]2C)n1 | 18 | 3.7 | 46 | 0.123 | 18 | 1.98 | 0.545 | > 1 | 0.0033 | 18 |  |
| C[C@@H]1CN(c2sc(C(F)(F)F)nc2-c2nc3ccccc3[nH]2)CCN1C(=O)Cn1cnc2c1CCN(C)C2 | 21 | 3 |  | 0.135 |  |  |  | > 0.92 | 0.0036 | 33 | fraction unbound [2]: 0.15; solubility [12]: > 0.92 mg/mL |
